What all share (experiment): NCI-60 cell line screen, 48 h
In assay [1] the test system is CAKI-1.
Assay [2] concerns HCT-15.
In assay [3] the test system is HOP-92.
The subject of assay [4] is IGROV-1.
Assay [5] deals with K562.
The test system of assay [6] is KM12.
For assay [7], the system named is M14.
Assay [8] relates to MDA-MB-435.
Assay [9] deals with NCI-H460.
In assay [10] the test system is OVCAR-3.
Assay [11] deals with PC-3.
For assay [12], the system named is RPMI-8226.
The test system of assay [13] is SF-268.
Assay [14] has as its system SK-MEL-5.
Assay [15] relates to SK-OV-3.
Assay [16] has as its system SN12C.
The test system of assay [17] is SNB-75.
For assay [18], the system named is SW-620.
For assay [19], the system named is U-251.
Assay [20] relates to HCT-116.

Consider eight molecules from ChEMBL document CHEMBL1201862, “PubChem BioAssay data set” (2004).

Molecules are shown by their SMILES.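 Grown in 96-well plates, cells were treated for 48 hours with each compound at five concentrations. Insufficient inhibition: endpoint recorded as highest concentration tested. Here, GI50 denotes the concentration required for 50% inhibition of growth.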 Active and inactive are the calls of the source. Rule as the data show it: active = GI50 up to about 1.1 µM and inactive = higher. A value given as a limit tells only on which side of the number the result lay.

Regarding `Fc1ccc(C(OCCN2CCN(CCCc3ccccc3)CC2)c2ccc(F)cc2)cc1`, the GI50 in [1] was 4.06 µM (inactive); in assay [2] it was 3.45 µM; in [3] it was 3.5 µM (inactive); in assay [4] it was 10.4 µM (inactive); in [5] it was 3.05 µM (inactive); in [6], 4.19 µM (inactive). The GI50 in assay [7] was 3.12 µM (inactive); in assay [8], 3.63 µM (inactive); in [9] it was 4.34 µM (inactive); in [10] it was 4.15 µM (inactive); in [11] it was 3.44 µM (inactive); in assay [12], 2.58 µM (inactive). In addition, the GI50 in assay [13] is 4.18 µM (inactive); in [14], 3.34 µM (inactive); in assay [15], 6.04 µM (inactive); in assay [16], 4.11 µM (inactive); in assay [17] it was 4.8 µM (inactive); in [18] it was 5.47 µM (inactive). Further, the GI50 in [19] is 3.65 µM (inactive).
As to `O=c1sc(Nc2ccc3ccccc3c2Cl)nc2ccccc12`, the GI50 was 35.9 µM (inactive) in [1]; > 100 µM (inactive) in assay [20]; more than 100 µM in [2]; 35.9 µM (inactive) in assay [3]; > 100 µM (inactive) in [4]; > 100 µM (inactive) in assay [5]. For the same molecule, the GI50 was > 100 µM (inactive) in assay [6]; 37.1 µM (inactive) in assay [8]; 60.4 µM (inactive) in assay [9]; > 100 µM (inactive) in assay [10]; > 100 µM (inactive) in assay [11]; > 100 µM (inactive) in assay [12]. For the same molecule, the GI50 in assay [13] is > 100 µM (inactive); in [14], > 100 µM (inactive); in assay [15], > 100 µM (inactive); in assay [16], > 100 µM (inactive); in [17], 49.3 µM (inactive); in assay [18], > 100 µM (inactive). In addition, the GI50 in assay [19] was > 100 µM (inactive).
With `Cc1ccc2nc(NC(=O)/C(Cc3nc4ccc(Cl)cc4nc3O)=N\NC(C)(C)C)sc2c1`, the GI50 in assay [1] is 41.8 µM (inactive); in assay [20], > 100 µM (inactive); in assay [2], 90.6 µM; in assay [3], > 100 µM (inactive); in assay [5] it was > 100 µM (inactive); in assay [6], > 100 µM (inactive). For the same molecule, the GI50 in assay [7], in assay [8], in assay [9], in [10], in assay [11] and in [12] was > 100 µM (inactive) in each case. The GI50 is 97.9 µM (inactive) in assay [13]; > 10 µM (inactive) in assay [14]; > 100 µM (inactive) in [15]; > 100 µM (inactive) in assay [16]; 15.5 µM (inactive) in assay [17]; > 100 µM (inactive) in assay [18]. Besides, in assay [19], the GI50 was > 100 µM (inactive).
Consider `COC(=O)C1OC2(CCCC3CC32)O[C@H]1C(=O)OC` (some centres not stated), for which the GI50 in [1] was > 100 µM (inactive); in assay [20], > 100 µM (inactive); in assay [2], more than 100 µM; in [3], 68.7 µM (inactive); in [4], > 100 µM (inactive); in assay [5], > 100 µM (inactive). For the same molecule, the GI50 in assay [6] is > 100 µM (inactive); in assay [7], > 100 µM (inactive); in assay [8] it was > 100 µM (inactive); in assay [9], 90.4 µM (inactive); in [10] it was > 100 µM (inactive); in assay [11] it was > 100 µM (inactive). The GI50 in assay [12], in [13], in [15], in assay [16], in [17] and in [18] was > 100 µM (inactive) each time. Also, the GI50 in [19] is > 100 µM (inactive).
Regarding `CCN(CC)CCNC(=O)c1cc2cc(NC(=O)c3cc4cc(NC(=O)c5cc6cc(N)ccc6[nH]5)ccc4[nH]3)ccc2[nH]1`, the GI50 is > 100 µM (inactive) in assay [1]; more than 100 µM in assay [2]; > 100 µM (inactive) in assay [3]; > 100 µM (inactive) in assay [4]; > 100 µM (inactive) in assay [5]; > 100 µM (inactive) in assay [6]. The GI50 in assay [7], in [8], in [9], in [10], in assay [11] and in assay [12] was > 100 µM (inactive) throughout. Moreover, the GI50 in [13], in assay [14], in [15], in assay [16], in assay [17] and in assay [18] was > 100 µM (inactive) throughout. Further, in assay [19], the GI50 was > 100 µM (inactive).
With `COc1ccc(/C=C2/SC(c3ccccc3)N(NC(=O)CCCCCCCCC(=O)NN3C(=O)/C(=C\c4ccc(OC)c(OC)c4)SC3c3ccccc3)C2=O)cc1OC` (configuration not stated), the GI50 in [1] is 53.6 µM (inactive); in [20], 29.1 µM (inactive); in assay [2], 55.2 µM; in assay [3], 17.3 µM (inactive); in [4] it was 1.03 µM (active); in [5] it was 6.59 µM (inactive). The GI50 in assay [6] was 45 µM (inactive); in assay [7], > 100 µM (inactive); in assay [8] it was 38.5 µM (inactive); in assay [9], 71 µM (inactive); in assay [10], > 100 µM (inactive); in [11], 76 µM (inactive). In addition, the GI50 in assay [12] is 20.7 µM (inactive); in [13], 69.3 µM (inactive); in assay [15], 48.6 µM (inactive); in [16], > 100 µM (inactive); in [17] it was 35.2 µM (inactive); in assay [18], 54.8 µM (inactive). In [19], the GI50 is 57.3 µM (inactive).
Regarding `COC(=O)[C@]1(C)CCCn2c(=O)n(-c3ccccc3)c(=O)n21`, the GI50 in assay [1] is > 100 µM (inactive); in [20] it was > 100 µM (inactive); in [2], more than 100 µM; in [3], > 100 µM (inactive); in [4] it was > 100 µM (inactive); in assay [5], > 100 µM (inactive). For the same molecule, the GI50 in assay [6], in [7], in assay [8], in assay [10], in assay [11] and in assay [12] was > 100 µM (inactive) each time. Besides, the GI50 in [13], in assay [14], in [15], in assay [16], in assay [17] and in assay [18] was > 100 µM (inactive) throughout. The GI50 in [19] was > 100 µM (inactive).
On to `COc1ccc(CC2(O)C3CC4CCC2C4C3)cc1` (configuration not stated), for which the GI50 in [1] is > 100 µM (inactive); in assay [2] it was more than 100 µM; in assay [3], 58.5 µM (inactive); in assay [4] it was > 100 µM (inactive); in [5] it was 49.1 µM (inactive); in assay [6], > 100 µM (inactive). In addition, the GI50 in [7] is > 100 µM (inactive); in assay [8] it was > 100 µM (inactive); in [9], 68.5 µM (inactive); in [10], > 100 µM (inactive); in [11], 39.2 µM (inactive); in [12], > 100 µM (inactive). Besides, the GI50 in assay [13] was > 100 µM (inactive); in assay [14], 31.9 µM (inactive); in assay [15], > 100 µM (inactive); in [16], 77.4 µM (inactive); in assay [17] it was 48.9 µM (inactive); in [18], > 100 µM (inactive). Also, the GI50 in assay [19] was > 100 µM (inactive).
